The structures appear in SMILES notation. Entries after “also recorded” stand apart in the source; their conditions may differ.

Data set [1] in a line: Pharmacokinetics in mouse plasma. In kind it is in vivo. As to conditions: 5.2 mg/kg i.p.; for half-life in mouse plasma: Example 3; for half-life / concentration at 5 min: female; for half-life: C57BL/6, ip, mouse plasma, Example 1; for concentration at 5 min: C57BL/6, mouse, plasma, intraperitoneal, read-out: concentration in mouse plasma after 5 minutes. The text has this:
To assess the pharmacokinetics (PK) of the curcuphenol analogues, a mass spectrometry assay was developed to measure the compounds in plasma. This assay was created by The Metabolomics Innovation Center (TMIC) at UVic-Genome BC Proteomics Centre located in Victoria, British Columbia. Eight samples were sent to TMIC for PK design for identification of P02-113 and P03-97-1 in mouse plasma. To collect plasma, mice were anesthetized using isoflurane and blood was collected by cardiac puncture. Plasma was isolated from blood in a potassium-EDTA coated Tube with K2E (BD Microtainer) and centrifugation at 10,000×g for 1 minute. Plasma was transferred to a cryovial and stored at −20° C. before being shipped on dry ice. TMIC used a chemical derivatization—UPLC-MMR/MS method to create a quantitative analysis tool for the compounds using dansyl chloride (DAN.CI) as the derivatizing reagent. 13C-labeled DAN.CI was used to produce stable isotope-labeled internal standards (ISs). All tests were performed using an UPLC-4000 QTRAP system with ESI and (+) ion detection using C18 column and acetonitrile-water-formic acid as the mobile phase.
For the PK analysis of P02-113 and P03-97-1, mice were injected i.p. and anesthetized before blood was collected by cardiac puncture at five time points (5 min, 10 min, 30 min, 1 hour and 6 hour). […] Three female C57BL/6 mice, between the ages 6-8 weeks, were used for each compound for each time point, giving a total […]. All mice were injected at the highest maximum tolerated dose (5.2 mg/kg) and plasma was prepared and stored as previously described above.
Pharmacokinetic study. […]. Three mice were used for each time point, with a total of […]. Time points were strategically chosen based on the similar structure of the compounds to TSA, an HDACi, which is known to augment TAP and MHC-I expression in metastatic tumours and to be metabolized at a high rate. The chosen time points were 5 minutes, 10 minutes, 1 hour and 6 hours.

The nature of another data set: Maximum tolerated dose. The following applies: for MTD at 14 days: female, C57BL/6, mouse, in vivo, ip, limited by solubility in 1% DMSO, read-out: highest maximum tolerated dose; for signs of toxicity (clinical signs, necropsy): i.p. 1.0, 3.5 and 5.2 mg/kg, 14 days, C57BL/6 mice. Format: in vivo. The protocol:
British Columbia Cancer Agency (BCCA) completed the maximum tolerated dose study for compound P02-113, whereas P03-97-1 was assessed in-house following the same protocol. […]. The compounds were injected intraperitoneally (i.p.) at concentrations of 1.0 mg/kg (n=3), 3.5 mg/kg (n=3), or 5.2 mg/kg (n=3). These doses were based on the maximum solubility of the compounds that was determined using the known solubility of curcuphenol. Mice were assessed for clinical signs of toxicity for 14 days following injection. After 14 days the mice were euthanized and examined by necropsy, P02-113 was performed at BCCA, and P03-97-1 was performed by Animal Care Services located at the Center for Comparative Medicine on UBC Point Grey campus, Vancouver BC.
In vivo efficacy studies. Maximum tolerated dose (MTD). The maximum tolerated dose for the selected compounds, P02-113 and P03-97-1, were assessed in vivo. C57BI/6 mice were injected intraperitoneally (i.p.) with the test compounds at 3 different concentrations: 1.0 mg/kg (n=3), 3.5 mg/kg (n=3) and 5.2 mg/kg (n=3). Mice were then assessed for 14 days for clinical signs of toxicity and at the end point a necropsy was performed. […]

Usually half-life stands for the time in which the quantity being followed falls by half. Regarding `CC(C)=CCCCc1ccc(C)cc1O` [P02-113], in data set [1], the “level in mouse plasma at the 6 hour time point” value is listed as “undetectable levels”, the “time at which plasma concentration was half of the 5 minute concentration” value was 10 min, the “half-life in mouse plasma” value is listed as “roughly one” and the half-life is less than 5 min. Also, the concentration at 5 min in data set [1] came out at 0.4 ng/mL. Moreover, in “Maximum tolerated dose”, the MTD at 14 days came out at 5.2 mg/kg and the “signs of toxicity (clinical signs, necropsy)” value is on record as “no signs of toxicity or abnormalities; also recorded: no adverse drug effects”.

Turning to `COc1ccc(C(C)CCC=C(C)C)c(O)c1` (centres unmarked) [P03-97-1], in data set [1], the “level in mouse plasma at the 6 hour time point” value is on record as “undetectable levels”, the “time at which plasma concentration was half of the 5 minute concentration” value is given as “around 20 minutes”, the “half-life in mouse plasma” value is recorded as “roughly one” and the half-life was 15 min. Further, in data set [1], the concentration at 5 min was determined as 30 ng/mL. Also, in “Maximum tolerated dose”, the MTD at 14 days was found to be 5.2 mg/kg and the “signs of toxicity (clinical signs, necropsy)” value is “no signs of toxicity or abnormalities; also recorded: no adverse drug effects”.

The values are drawn from patent US20220105051A1, “COMPOUNDS FOR INCREASING MHC-I EXPRESSION AND MODULATING HISTONE DEACETYLASE ACTIVITY” (Cava Healthcare Inc., priority 2019, published 2022).
